Reference: PubChem BioAssay AID1963984 (Molecular Pharmacology Branch, DTP, NCI, 2024)

System: 233499-124-R-J3-PDC spheroids with HUVEC/MSC, viability
Assay: Anticancer human tumor 233499-124-R-J3-PDC patient-derived colon adenocarcinoma cell line growth inhibition [PI3K]
Conditions: for viability, T/C: stronger effect = lower value
Outline: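 Tumor cells grown as multi-cell spheroids with HUVEC endothelial cells and MSC fibroblast-like stroma were treated with targeted agents combined with inavolisib, alpelisib, duvelisib or copanlisib. Doses fell in half-log steps from near clinical Cmax, else from 10 microM. Viability was measured.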

[1] = curve of first compound, second compound 0.0316 µM
[2] = curve of first compound, second compound 0.1 µM
[3] = curve of first compound, second compound 0.316 µM
[4] = curve of first compound, second compound 1 µM
[5] = curve of first compound, second compound 3.16 µM
[6] = curve of first compound, second compound 10 µM
[7] = second compound 0.0316 µM, first compound 0.0316 µM
[8] = second compound 0.0316 µM, first compound 0.1 µM
[9] = second compound 0.0316 µM, first compound 0.316 µM
[10] = second compound 0.0316 µM, first compound 1 µM
[11] = second compound 0.0316 µM, first compound 3.16 µM
[12] = second compound 0.0316 µM, first compound 10 µM
[13] = second compound 0.1 µM, first compound 0.0316 µM
[14] = second compound 0.1 µM, first compound 0.1 µM
[15] = second compound 0.1 µM, first compound 0.316 µM
[16] = second compound 0.1 µM, first compound 1 µM
[17] = second compound 0.1 µM, first compound 3.16 µM
[18] = second compound 0.1 µM, first compound 10 µM
[19] = second compound 0.316 µM, first compound 0.0316 µM
[20] = second compound 0.316 µM, first compound 0.1 µM
[21] = second compound 0.316 µM, first compound 0.316 µM
[22] = second compound 0.316 µM, first compound 1 µM
[23] = second compound 0.316 µM, first compound 3.16 µM
[24] = second compound 0.316 µM, first compound 10 µM
[25] = second compound 1 µM, first compound 0.0316 µM
[26] = second compound 1 µM, first compound 0.1 µM
[27] = second compound 1 µM, first compound 0.316 µM
[28] = second compound 1 µM, first compound 1 µM
[29] = second compound 1 µM, first compound 3.16 µM
[30] = second compound 1 µM, first compound 10 µM
[31] = second compound 3.16 µM, first compound 0.0316 µM
[32] = second compound 3.16 µM, first compound 0.1 µM
[33] = second compound 3.16 µM, first compound 0.316 µM
[34] = second compound 3.16 µM, first compound 1 µM
[35] = second compound 3.16 µM, first compound 3.16 µM
[36] = second compound 3.16 µM, first compound 10 µM
[37] = second compound 10 µM, first compound 0.0316 µM
[38] = second compound 10 µM, first compound 0.1 µM
[39] = second compound 10 µM, first compound 0.316 µM
[40] = second compound 10 µM, first compound 1 µM
[41] = second compound 10 µM, first compound 3.16 µM
[42] = second compound 10 µM, first compound 10 µM
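Also: spheroids exposed to agents for seven days before readout.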
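For viability, T/C in this document: percent viability relative to DMSO vehicle control taken as 100%.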

SMILES: CC1(C)CCC(Nc2ncc(C(F)(F)F)c(-c3c[nH]c4c(P(C)(C)=O)c(C#N)ccc34)n2)CN1 (stereo unspecified) + CC(Nc1ncnc2nc[nH]c12)c1cc2cccc(Cl)c2c(=O)n1-c1ccccc1
- IC50 [1]: 202 nM
- IC50 [2]: 210 nM
- IC50 [3]: 90.3 nM
- IC50 [4]: 170 nM
- IC50 [5]: 273 nM
- IC50 [6]: < 31.6 nM
- viability, T/C [7]: 88.8%
- viability, T/C [8]: 52.3%
- viability, T/C [9]: 40%
- viability, T/C [10]: 50.8%
- viability, T/C [11]: 25.2%
- viability, T/C [12]: 20.1%
- viability, T/C [13]: 93%
- viability, T/C [14]: 50.4%
- viability, T/C [15]: 49%
- viability, T/C [16]: 30.9%
- viability, T/C [17]: 29.8%
- viability, T/C [18]: 6.77%
- viability, T/C [19]: 66.7%
- viability, T/C [20]: 46%
- viability, T/C [21]: 30.7%
- viability, T/C [22]: 32.2%
- viability, T/C [23]: 34%
- viability, T/C [24]: 10.2%
- viability, T/C [25]: 81.8%
- viability, T/C [26]: 50.5%
- viability, T/C [27]: 51%
- viability, T/C [28]: 28.2%
- viability, T/C [29]: 22.7%
- viability, T/C [30]: 22.6%
- viability, T/C [31]: 75.9%
- viability, T/C [32]: 67.2%
- viability, T/C [33]: 46.8%
- viability, T/C [34]: 27.5%
- viability, T/C [35]: 23.2%
- viability, T/C [36]: 4.38%
- viability, T/C [37]: 52.3%
- viability, T/C [38]: 36.4%
- viability, T/C [39]: 49.6%
- viability, T/C [40]: 20.7%
- viability, T/C [41]: 38.8%
- viability, T/C [42]: 6.16%

SMILES: CCN1CCN(Cc2ccc(Nc3ncc(F)c(-c4cc(F)c5nc(C)n(C(C)C)c5c4)n3)nc2)CC1 + Cc1nc(NC(=O)N2CCCC2C(N)=O)sc1-c1ccnc(C(C)(C)C(F)(F)F)c1
- IC50 [1]: 547 nM
- IC50 [2]: 658 nM
- IC50 [3]: 164 nM
- IC50 [4]: 36 nM
- IC50 [5]: 7.26 nM
- IC50 [6]: < 3.16 nM
- viability, T/C (second compound 0.0316 µM, first compound 0.00316 µM): 67.3%
- viability, T/C (second compound 0.0316 µM, first compound 0.01 µM): 90.7%
- viability, T/C [7]: 74%
- viability, T/C [8]: 79.7%
- viability, T/C [9]: 59.5%
- viability, T/C [10]: 39.6%
- viability, T/C (second compound 0.1 µM, first compound 0.00316 µM): 72.5%
- viability, T/C (second compound 0.1 µM, first compound 0.01 µM): 86.7%
- viability, T/C [13]: 67.5%
- viability, T/C [14]: 52.6%
- viability, T/C [15]: 66.6%
- viability, T/C [16]: 43.4%
- viability, T/C (second compound 0.316 µM, first compound 0.00316 µM): 94.8%
- viability, T/C (second compound 0.316 µM, first compound 0.01 µM): 79.2%
- viability, T/C [19]: 71.9%
- viability, T/C [20]: 47.6%
- viability, T/C [21]: 49.5%
- viability, T/C [22]: 30.7%
- viability, T/C (second compound 1 µM, first compound 0.00316 µM): 52.5%
- viability, T/C (second compound 1 µM, first compound 0.01 µM): 49.5%
- viability, T/C [25]: 49.7%
- viability, T/C [26]: 49.2%
- viability, T/C [27]: 38.4%
- viability, T/C [28]: 21.3%
- viability, T/C (second compound 3.16 µM, first compound 0.00316 µM): 55.4%
- viability, T/C (second compound 3.16 µM, first compound 0.01 µM): 49.1%
- viability, T/C [31]: 37.7%
- viability, T/C [32]: 36.6%
- viability, T/C [33]: 25%
- viability, T/C [34]: 24.4%
- viability, T/C (second compound 10 µM, first compound 0.00316 µM): 28.1%
- viability, T/C (second compound 10 µM, first compound 0.01 µM): 21.9%
- viability, T/C [37]: 27.6%
- viability, T/C [38]: 21.1%
- viability, T/C [39]: 21.3%
- viability, T/C [40]: 20.7%

SMILES: C=CC(=O)N1CCN(c2nc(=O)n(-c3c(C)ccnc3C(C)C)c3nc(-c4c(O)cccc4F)c(F)cc23)C(C)C1 (stereo unspecified) + Cc1nc(NC(=O)N2CCCC2C(N)=O)sc1-c1ccnc(C(C)(C)C(F)(F)F)c1
- IC50 [1]: > 10000 nM
- IC50 [2]: > 10000 nM
- IC50 [3]: > 10000 nM
- IC50 [4]: > 10000 nM
- IC50 [5]: < 31.6 nM
- IC50 [6]: < 31.6 nM
- viability, T/C [7]: 89.3%
- viability, T/C [8]: 94.8%
- viability, T/C [9]: 99.3%
- viability, T/C [10]: 106%
- viability, T/C [11]: 100%
- viability, T/C [12]: 85%
- viability, T/C [13]: 84.8%
- viability, T/C [14]: 96.3%
- viability, T/C [15]: 93%
- viability, T/C [16]: 81.4%
- viability, T/C [17]: 79.5%
- viability, T/C [18]: 80.2%
- viability, T/C [19]: 95.2%
- viability, T/C [20]: 96.7%
- viability, T/C [21]: 70.1%
- viability, T/C [22]: 82.2%
- viability, T/C [23]: 67.5%
- viability, T/C [24]: 92.6%
- viability, T/C [25]: 71.7%
- viability, T/C [26]: 92.2%
- viability, T/C [27]: 79.4%
- viability, T/C [28]: 77.3%
- viability, T/C [29]: 80.9%
- viability, T/C [30]: 79.8%
- viability, T/C [31]: 39.4%
- viability, T/C [32]: 51.1%
- viability, T/C [33]: 71.8%
- viability, T/C [34]: 34.1%
- viability, T/C [35]: 60.9%
- viability, T/C [36]: 67.9%
- viability, T/C [37]: 24%
- viability, T/C [38]: 41.6%
- viability, T/C [39]: 24.9%
- viability, T/C [40]: 41.8%
- viability, T/C [41]: 37.6%
- viability, T/C [42]: 27.2%

SMILES: CC(C)NCC(C(=O)N1CCN(c2ncnc3c2C(C)CC3O)CC1)c1ccc(Cl)cc1 (stereo unspecified)
- viability, T/C (compound 0.0316 µM): 97.7% [middle of 4 runs]
- viability, T/C (compound 0.316 µM): 94% [middle of 4 runs]
- viability, T/C (compound 1 µM): 102% [middle of 4 runs]
- viability, T/C (compound 3.16 µM): 94.5% [middle of 4 runs]
- IC50 (curve of compound): > 10000 nM
